Read-outs that look alike come from different tables or passages of the source.
Legend:
Assay in all cases: TGFα-shedding assay-based GPCR screening with chimeric Gα subunit proteins
Type in all cases: cell-based
[1] = target: T1, 348 GPCRs (Homo sapiens, UniProt Q96PE1)
T1 sequence (Q96PE1 34-1338): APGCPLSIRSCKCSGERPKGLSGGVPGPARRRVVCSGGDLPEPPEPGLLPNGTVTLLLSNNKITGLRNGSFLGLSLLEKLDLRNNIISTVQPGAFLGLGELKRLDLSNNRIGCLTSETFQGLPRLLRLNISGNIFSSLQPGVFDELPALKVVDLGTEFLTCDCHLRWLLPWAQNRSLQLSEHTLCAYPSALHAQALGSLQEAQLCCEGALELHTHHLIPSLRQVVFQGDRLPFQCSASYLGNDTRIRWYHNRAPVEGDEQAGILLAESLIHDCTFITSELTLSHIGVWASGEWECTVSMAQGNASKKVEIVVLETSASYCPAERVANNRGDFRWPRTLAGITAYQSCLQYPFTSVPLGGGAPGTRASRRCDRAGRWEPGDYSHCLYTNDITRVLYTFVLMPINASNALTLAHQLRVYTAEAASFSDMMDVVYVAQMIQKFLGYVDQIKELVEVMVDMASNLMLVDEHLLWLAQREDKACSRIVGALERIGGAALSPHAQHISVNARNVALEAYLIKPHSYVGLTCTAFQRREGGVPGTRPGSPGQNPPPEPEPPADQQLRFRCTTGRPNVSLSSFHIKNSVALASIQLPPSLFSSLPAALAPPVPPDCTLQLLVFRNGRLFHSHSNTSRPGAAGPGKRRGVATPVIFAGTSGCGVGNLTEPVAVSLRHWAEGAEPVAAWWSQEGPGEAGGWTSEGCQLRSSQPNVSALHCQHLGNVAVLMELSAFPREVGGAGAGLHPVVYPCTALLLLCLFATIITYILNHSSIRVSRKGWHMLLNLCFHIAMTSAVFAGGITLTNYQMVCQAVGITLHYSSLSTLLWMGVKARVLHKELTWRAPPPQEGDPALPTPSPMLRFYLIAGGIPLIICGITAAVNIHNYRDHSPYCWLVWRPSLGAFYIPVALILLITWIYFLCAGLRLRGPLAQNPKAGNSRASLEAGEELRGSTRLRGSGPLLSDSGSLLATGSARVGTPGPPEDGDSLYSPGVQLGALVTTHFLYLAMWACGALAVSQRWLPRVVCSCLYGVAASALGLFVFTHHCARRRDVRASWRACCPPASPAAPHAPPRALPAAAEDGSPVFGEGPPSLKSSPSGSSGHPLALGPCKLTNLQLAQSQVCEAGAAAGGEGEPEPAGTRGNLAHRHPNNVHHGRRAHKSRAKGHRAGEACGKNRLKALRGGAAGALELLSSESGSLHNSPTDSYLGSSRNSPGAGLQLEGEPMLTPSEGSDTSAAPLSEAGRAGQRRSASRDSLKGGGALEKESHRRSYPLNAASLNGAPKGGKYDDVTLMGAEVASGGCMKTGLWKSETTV

[2] = target: T2, 348 GPCRs (Homo sapiens, UniProt Q8NDV2); conditions: 10µM, Favipiravir 100μM
T2 construct: expressed in transfected cells; host or cells: HEK293A
T2 sequence (Q8NDV2 whole entry): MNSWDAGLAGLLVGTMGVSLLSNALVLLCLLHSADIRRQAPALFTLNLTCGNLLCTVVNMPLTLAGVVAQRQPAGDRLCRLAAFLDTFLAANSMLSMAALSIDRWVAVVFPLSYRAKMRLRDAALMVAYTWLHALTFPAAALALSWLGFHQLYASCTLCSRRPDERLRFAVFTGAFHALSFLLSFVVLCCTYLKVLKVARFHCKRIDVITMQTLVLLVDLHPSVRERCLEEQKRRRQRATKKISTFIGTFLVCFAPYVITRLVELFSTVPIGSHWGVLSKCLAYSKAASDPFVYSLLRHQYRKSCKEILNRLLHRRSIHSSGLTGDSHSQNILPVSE

[3] = target: 348 GPCRs (Homo sapiens, UniProt Q99500); conditions: 10µM, Favipiravir 100μM
Sequence of 348 GPCRs (Homo sapiens, UniProt Q99500) (Q99500 whole entry): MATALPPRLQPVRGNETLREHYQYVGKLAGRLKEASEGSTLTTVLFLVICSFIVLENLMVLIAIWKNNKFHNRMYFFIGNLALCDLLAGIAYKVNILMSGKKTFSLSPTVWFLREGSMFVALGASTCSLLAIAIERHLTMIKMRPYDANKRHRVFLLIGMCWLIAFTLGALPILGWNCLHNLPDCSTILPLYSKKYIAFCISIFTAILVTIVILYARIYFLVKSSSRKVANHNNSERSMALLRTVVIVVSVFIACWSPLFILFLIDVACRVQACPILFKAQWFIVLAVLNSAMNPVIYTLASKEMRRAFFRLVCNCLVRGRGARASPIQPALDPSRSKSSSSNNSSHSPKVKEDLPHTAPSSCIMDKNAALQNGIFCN

[4] = target: T3, 348 GPCRs (Homo sapiens, UniProt Q9UNW8); conditions: G2A (GPR132); 10µM, Favipiravir 100μM
T3 construct: expressed in transfected cells; host or cells: HEK293A
T3 sequence (Q9UNW8 1-380): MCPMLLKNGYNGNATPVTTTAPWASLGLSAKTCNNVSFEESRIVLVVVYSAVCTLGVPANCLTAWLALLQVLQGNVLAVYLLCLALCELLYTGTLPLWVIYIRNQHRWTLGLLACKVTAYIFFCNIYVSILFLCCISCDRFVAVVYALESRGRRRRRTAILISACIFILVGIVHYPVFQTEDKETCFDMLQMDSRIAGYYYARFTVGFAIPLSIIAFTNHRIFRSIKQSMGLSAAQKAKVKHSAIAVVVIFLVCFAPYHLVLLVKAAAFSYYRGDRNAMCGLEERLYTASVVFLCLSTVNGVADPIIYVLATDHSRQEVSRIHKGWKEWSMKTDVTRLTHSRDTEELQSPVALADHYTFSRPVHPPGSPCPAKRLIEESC

[5] = target: 348 GPCRs (Homo sapiens, UniProt P30874); conditions: 10µM, Favipiravir 100μM
Sequence of 348 GPCRs (Homo sapiens, UniProt P30874) (P30874 whole entry): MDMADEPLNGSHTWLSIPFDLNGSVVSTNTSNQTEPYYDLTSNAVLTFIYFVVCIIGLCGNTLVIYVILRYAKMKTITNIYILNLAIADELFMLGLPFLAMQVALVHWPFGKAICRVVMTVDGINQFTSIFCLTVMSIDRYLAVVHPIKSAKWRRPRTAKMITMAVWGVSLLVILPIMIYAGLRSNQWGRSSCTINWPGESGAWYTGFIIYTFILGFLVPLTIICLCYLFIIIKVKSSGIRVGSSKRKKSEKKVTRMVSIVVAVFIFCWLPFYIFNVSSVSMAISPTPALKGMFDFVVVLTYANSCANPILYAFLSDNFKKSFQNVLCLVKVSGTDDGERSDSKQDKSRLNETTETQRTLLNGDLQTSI

[6] = target: T4, 348 GPCRs (Homo sapiens, UniProt P49685); conditions: 10µM, Favipiravir 100μM
T4 sequence (P49685 1-360): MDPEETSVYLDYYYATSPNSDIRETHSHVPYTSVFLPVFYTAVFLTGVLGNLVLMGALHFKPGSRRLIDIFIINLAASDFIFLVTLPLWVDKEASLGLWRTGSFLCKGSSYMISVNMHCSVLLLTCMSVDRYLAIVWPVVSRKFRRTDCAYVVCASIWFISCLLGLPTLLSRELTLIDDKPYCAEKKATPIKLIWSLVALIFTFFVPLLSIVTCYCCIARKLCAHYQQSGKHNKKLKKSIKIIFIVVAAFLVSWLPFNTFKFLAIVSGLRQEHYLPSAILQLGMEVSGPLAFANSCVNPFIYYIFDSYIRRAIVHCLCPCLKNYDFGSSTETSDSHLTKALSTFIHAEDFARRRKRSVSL

[7] = target: T5, 348 GPCRs (Homo sapiens, UniProt O60755); conditions: 10µM, Favipiravir 100μM
T5 construct: expressed in transfected cells; host or cells: HEK293A
T5 sequence (O60755 1-368): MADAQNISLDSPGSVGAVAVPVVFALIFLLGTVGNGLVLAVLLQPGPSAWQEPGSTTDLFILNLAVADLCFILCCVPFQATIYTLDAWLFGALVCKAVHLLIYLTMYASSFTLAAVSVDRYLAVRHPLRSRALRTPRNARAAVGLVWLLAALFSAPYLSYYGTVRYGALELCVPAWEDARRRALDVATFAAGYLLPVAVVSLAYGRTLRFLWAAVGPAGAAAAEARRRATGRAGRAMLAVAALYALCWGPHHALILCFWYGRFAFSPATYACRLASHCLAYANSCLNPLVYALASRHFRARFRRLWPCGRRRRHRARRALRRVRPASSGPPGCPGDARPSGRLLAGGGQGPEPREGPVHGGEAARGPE

[8] = GPCR GPR124 (Adhesion G Protein-Coupled Receptor A2 (ADGRA2)), read-out: % GPCR activation compared to TPA
[9] = GPR26 (G Protein-Coupled Receptor 26), read-out: % GPCR activation compared to TPA
[10] = S1PR3 (sphingosine-1-phosphate receptor 3), read-out: % GPCR activation compared to TPA
[11] = SSTR2 (somatostatin receptor 2), read-out: % GPCR activation compared to TPA
[12] = GPR15 (G protein-coupled receptor 15), read-out: % GPCR activation compared to TPA
[13] = GALR3 (galanin receptor 3), read-out: % GPCR activation compared to TPA
[14] = read-out: % GPCR activation compared to TPA, GPCR GPR124 (Adhesion G Protein-Coupled Receptor A2 (ADGRA2))
[15] = read-out: % GPCR activation compared to TPA, GPR26 (G Protein-Coupled Receptor 26)
[16] = read-out: % GPCR activation compared to TPA, S1PR3 (sphingosine-1-phosphate receptor 3)
[17] = read-out: % GPCR activation compared to TPA, SSTR2 (somatostatin receptor 2)
[18] = read-out: % GPCR activation compared to TPA, GPR15 (G protein-coupled receptor 15)
[19] = read-out: % GPCR activation compared to TPA, GALR3 (galanin receptor 3)

N#C[C@@]1(c2ccc3c(N)ncnn23)O[C@H](CO)[C@@H](O)[C@H]1O [GS441524]
activation at 10 µM [1, 8]: 0.29% | activation at 100 µM [2, 9]: -0.116% | activation at 10 µM [3, 10]: -2.2% | % GPCR activation compared to TPA [4]: -8.135% | activation at 10 µM [5, 11]: -0.998% | activation at 100 µM [6, 12]: -0.752% | activation at 100 µM [7, 13]: 2.25%

CCC(CC)COC(=O)[C@H](C)N[P@](=O)(OC[C@H]1O[C@@](C#N)(c2ccc3c(N)ncnn23)[C@H](O)[C@@H]1O)Oc1ccccc1 [remdesivir]
activation at 10 µM [1, 14]: -0.926% | activation at 100 µM [2, 15]: 0.188% | activation at 10 µM [3, 16]: -2.57% | % GPCR activation compared to TPA [4]: 10.99% | activation at 10 µM [5, 17]: 0.304% | activation at 100 µM [6, 18]: -0.0536% | activation at 100 µM [7, 19]: 3.03%

CC(C)OC(=O)[C@H](C)N[P@](=O)(OC[C@H]1O[C@@H](n2ccc(=O)[nH]c2=O)[C@](C)(F)[C@@H]1O)Oc1ccccc1 [sofosbuvir]
activation at 10 µM [1, 14]: 1.09% | activation at 100 µM [2, 15]: 0.171% | activation at 10 µM [3, 16]: -0.452% | % GPCR activation compared to TPA [4]: -1.375% | activation at 10 µM [5, 17]: -1.14% | activation at 100 µM [6, 18]: -12.9% | activation at 100 µM [7, 19]: -0.187%

NC(=O)c1nc(F)cnc1O [favipiravir, 6-fluoro-3-hydroxy-2-pyrazinecarboxamide]
activation at 100 µM ([1]; GPCR GPR124 (Adhesion G Protein-Coupled Receptor A2 (ADGRA2)), 100μM, read-out: % GPCR activation compared to TPA): -1.17% | activation at 100 µM [2, 9]: -0.29% | activation at 10 µM [3, 10]: -2% | % GPCR activation compared to TPA [4]: 7.4% | activation at 10 µM [5, 11]: -0.842% | activation at 100 µM [6, 12]: 1.23% | activation at 100 µM [7, 13]: 3.96%

CC(C)C(=O)OC[C@H]1O[C@@H](n2ccc(NO)nc2=O)[C@H](O)[C@@H]1O [molnupiravir]
activation at 10 µM [1, 8]: -0.928% | activation at 100 µM [2, 9]: -0.581% | activation at 10 µM [3, 10]: -2.52% | % GPCR activation compared to TPA [4]: -1.8016% | activation at 10 µM [5, 11]: -0.658% | activation at 100 µM [6, 12]: -0.0279% | activation at 100 µM [7, 13]: 0.404%

— PMC10175918 (Communications Biology, 2023)
